Patent publication US20070264411A1, “PROCESS OF PRODUCING A CAPSINOID-CONTAINING FOOD AND DRINK” (AJINOMOTO CO., INC., priority 2006, published 2007)

Legend:
Assay type in all cases: physicochemical
[1] = Storage stability of diluted dihydrocapsiate emulsion with a variety of emulsifiers added; details: 8 emulsifiers of Table 1 other than DECAGLYN 1-O, each at 0.114% in 0.01M citrate buffer (pH 3.5) with sucrose; 1000 parts dilution; FIG. 2
Protocol: In the same manner as in Example 1, a dihydrocapsiate containing emulsion composition was diluted with up to 1000 parts of 0.01M citrate buffer (pH 3.5) supplemented with sucrose and the stability of storage was evaluated. Prior to addition of the dihydrocapsiate containing emulsion composition 8 types of emulsifiers were added to 0.01M citrate buffer (pH 3.5) supplemented with sucrose so as to be 0.114%, and the difference of the stability as a function of the emulsifier added was evaluated.

[2] = Storage stability of diluted dihydrocapsiate emulsion with a variety of high molecular weight components added; details: 500 parts dilution, FIG. 3
Protocol: In the same manner as in Example 2, a dihydrocapsiate containing emulsion composition was diluted with up to 500 parts of 0.01M citrate buffer (pH 3.5) supplemented with sucrose and the stability of storage was evaluated. Prior to addition of the dihydrocapsiate containing emulsion composition 8 types of high molecular weight components were added to 0.01M citrate buffer (pH 3.5) supplemented with sucrose, and the difference of the stability as a function of the high molecular weight components added was evaluated. […] In regard to the amount of high molecular weight component to be added, xanthan gum was reduced to 0.1% because it gives high viscosity in a small quantity. The amount of other high molecular weight components added than xanthan gum was fixed at 0.5%.

[3] = Storage stability of diluted dihydrocapsiate emulsion with added emulsifier DECAGLYN 1-O (HPLC capsinoid content)
Protocol: A dihydrocapsiate emulsion composition was prepared according to the method described in Example 1 of JP Patent Kokai Publication No. JP-P2003-192576A. Briefly, decaglycerin monooleate (Nikko Chemical Co.; trade name, DECAGLYN 1-O) (21 g), glycerin (193 g) and water (26 g) were mixed, dissolved under heating at 90-95° C., and cooled to 30° C. Synthetic dihydrocapsiate (8.5 g) and sucrose acetate isobutyrate (SAIB) (51 g) were added and dissolved under heating at 85-90° C., and the mixture was emulsified at 30-90° C. to prepare a capsinoid-containing emulsion composition (pH 3.6). The resulting emulsion composition was diluted with up to 1000 parts of 0.01M citrate buffer (pH 3.5) supplemented with sucrose to obtain an additive-free sample. On the other hand, the composition was diluted with up to 1000 parts of 0.01M citrate buffer (pH 3.5) supplemented with sucrose to which was added 0.014%, 0.114% emulsifier (Nikko Chemical Co.; DECAGLYN 1-0) respectively, to prepare emulsion-supplemented samples. The resulting samples were sterilized by heating for 20 minutes at 44° C. and stored.
Every one week after storage, the capsinoid content was determined. Analysis of the capsinoid content was performed by high performance liquid chromatography (HPLC) after dilution with an ethyl acetate/methanol (6:4) mixture.

[4] = Storage stability of dihydrocapsiate emulsion mixed with emulsifier in advance or diluted with emulsifier-containing buffer; details: stored at 24° C. and 44° C.
Protocol: Into a capsinoid emulsion composition prepared in Example 1 an emulsifier (Nikko Chemical Co., Decaglyn 1-O) was blended at a ratio of 10 to 3 under heating (50-70° C.) to prepare a composition. The resulting composition was diluted with up to 230 parts of 0.01M citrate buffer (pH 3.5) supplemented with sucrose to prepare a mixture of the emulsion composition and the emulsifier. On the other hand, an additive-free sample prepared by diluting the capsinoid emulsion composition (prepared in Example 1) with up to 300 parts of the same buffer was diluted with up to 300 parts of 0.01M citrate buffer (pH 3.5) supplemented with sucrose to which was added an emulsifier (Nikko Chemical Co., DECAGLYN 1-0) in advance at a rate of 0.10%, to prepare a sample containing an emulsifier. In either sample, the content of capsinoid after dilution with the buffer correspond to 0.33% of the initial amount of capsinoid existing in the emulsion composition. Thus prepared samples were sterilized under heat for 20 minutes and stored at 24° C. and 44° C.
In periodical sampling, the content of capsinoid was determined. The content of capsinoid was analyzed by high performance liquid chromatography (HPLC) after dilution with a mixture of ethyl acetate and methanol (6:4).

| Compound | stability of dihydrocapsiate during storage [1] | storage stability of dihydrocapsiate ([2]; HM pectin 0.5% in 0.01M citrate buffer (pH 3.5) with sucrose) | storage stability of dihydrocapsiate ([2]; carboxymethylcellulose sodium (CMC sodium) 0.5% in 0.01M citrate buffer (pH 3.5) with sucrose) | storage stability of dihydrocapsiate ([2]; carrageenan 0.5% in 0.01M citrate buffer (pH 3.5) with sucrose) | rate of residual dihydrocapsiate relative to emulsifier-free case ([3]; 0.114% emulsifier (DECAGLYN 1-O) added, about one month after storage, citrate buffer pH 3.5) | storage stability of dihydrocapsiate ([4]; FIG. 4A: emulsion composition diluted up to 300 parts with buffer to which 0.10% DECAGLYN 1-O was previously added) | storage stability of dihydrocapsiate ([4]; FIG. 4B: emulsion composition pre-blended with Decaglyn 1-O (10 to 3), diluted up to 230 parts with buffer containing no emulsifier) | storage stability of dihydrocapsiate ([3]; emulsion composition diluted up to 1000 parts with 0.01M citrate buffer (pH 3.5) with sucrose, 0.014% or 0.114% DECAGLYN 1-O added vs additive-free, FIG. 1) |
| --- | --- | --- | --- | --- | --- | --- | --- | --- |
| COc1cc(COC(=O)CCCCCCC(C)C)ccc1O [dihydrocapsiate] | improve the stability | Improvement of the storage stability | Improvement of the storage stability | Improvement of the storage stability | ≥ 2 times | improves the storage stability | improves the storage stability | – |
| dihydrocapsiate | – | – | – | – | – | – | – | increased with increase of the amount of emulsifier added |
